Experimental findings from PubChem BioAssay (NCI) are described below.

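These data come from cells grown in 96-well plates and exposed to compound for 48 hours at five concentrations. Definition used: TGI = concentration required for complete inhibition of growth.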

Test systems include SK-OV-3 ovarian; SK-MEL-28 melanoma; UACC-257 melanoma; MALME-3M melanoma; HOP-62 NSCLC; HT29 colon; HCC-2998 colon; HOP-92 NSCLC; U251 CNS; K-562 leukemia; SNB-19 CNS; BT-549 breast; EKVX NSCLC; HL-60(TB) leukemia; SN12C renal; A498 renal; SK-MEL-2 melanoma; MDA-N; MCF7 breast; ACHN renal.
Holding throughout (assay): NCI tumour cell line growth inhibition, 48 h

On to `Cc1ccc(S(=O)(=O)N/N=C2/CCCOC2)cc1`, for which the TGI with SK-OV-3 ovarian, with SK-MEL-28 melanoma, in the assay on UACC-257 melanoma, in the assay with MALME-3M melanoma, with HOP-62 NSCLC and in the assay on HT29 colon was more than 100 µM throughout. Further, the TGI with HCC-2998 colon, with HOP-92 NSCLC, with U251 CNS, with K-562 leukemia, in the assay on SNB-19 CNS and in the assay with BT-549 breast was more than 100 µM in each case. Moreover, the TGI in the assay on EKVX NSCLC, with HL-60(TB) leukemia, in the assay on SN12C renal, in the assay with A498 renal, with SK-MEL-2 melanoma and in the assay on MDA-N was more than 100 µM throughout. Moreover, the TGI with MCF7 breast and in the assay on ACHN renal was more than 100 µM throughout.
For `COC(=O)c1cc2c(cc1Cl)Sc1nnc(Nc3ccc(C)cc3)n1S2(=O)=O`, the TGI is 24.1 µM in the assay with SK-OV-3 ovarian; 21.8 µM in the assay with SK-MEL-28 melanoma; 25.6 µM in the assay on UACC-257 melanoma; 26.3 µM with MALME-3M melanoma; 23.5 µM in the assay on HOP-62 NSCLC; 15.5 µM in the assay on HT29 colon. Also, the TGI in the assay on HCC-2998 colon worked out at 17.5 µM; with HOP-92 NSCLC, 16.5 µM; with U251 CNS, 17 µM; with K-562 leukemia, 33.4 µM; with SNB-19 CNS, 20.2 µM; in the assay with BT-549 breast, 30.5 µM. For the same compound, the TGI was found to be 27.7 µM in the assay with EKVX NSCLC; 13.8 µM in the assay with HL-60(TB) leukemia; 36.5 µM in the assay with SN12C renal; 28.9 µM with A498 renal; 9.16 µM with SK-MEL-2 melanoma; 20.6 µM in the assay on MDA-N. Further, the TGI is 11.4 µM in the assay with MCF7 breast and 8.8 µM in the assay on ACHN renal.
Consider `C1=Cc2cc3c(c4nccc(c24)N1)OCO3`, for which the TGI in the assay with SK-OV-3 ovarian is 55.9 µM; in the assay with SK-MEL-28 melanoma, more than 71 µM; with UACC-257 melanoma, 50.7 µM; in the assay on MALME-3M melanoma, 26 µM; in the assay with HOP-62 NSCLC, more than 82.4 µM; with HCC-2998 colon, 28.6 µM. Further, the TGI was more than 100 µM in the assay with HOP-92 NSCLC; more than 100 µM in the assay on U251 CNS; 98.9 µM in the assay on K-562 leukemia; more than 34.7 µM with SNB-19 CNS; 48.8 µM in the assay with BT-549 breast; 34 µM with EKVX NSCLC. Moreover, the TGI is more than 100 µM with HL-60(TB) leukemia; more than 39.2 µM with SN12C renal; more than 85.1 µM with A498 renal; 36.6 µM with SK-MEL-2 melanoma; 24.2 µM with MDA-N; 16.1 µM in the assay on MCF7 breast. In addition, the TGI in the assay with ACHN renal is more than 34.4 µM.
In the case of `CCN(CC)CCSc1c2cc(OC)ccc2nc2ccc(OC)cc12`, the TGI with SK-OV-3 ovarian was more than 54.4 µM; with SK-MEL-28 melanoma it was 32.7 µM; with UACC-257 melanoma it was 16.4 µM; in the assay with MALME-3M melanoma, 7.74 µM; with HOP-62 NSCLC, more than 75.4 µM; with HCC-2998 colon it was 40.5 µM. The TGI is 4.61 µM in the assay on HOP-92 NSCLC; more than 53.1 µM in the assay with U251 CNS; more than 22.6 µM in the assay with K-562 leukemia; more than 65.7 µM in the assay with SNB-19 CNS; 21 µM in the assay on BT-549 breast; 29.7 µM with EKVX NSCLC. Moreover, the TGI in the assay with HL-60(TB) leukemia was more than 100 µM; in the assay with SN12C renal, 9.75 µM; with A498 renal, 51.5 µM; in the assay on SK-MEL-2 melanoma it was 44.6 µM; in the assay on MDA-N it was 8.97 µM; in the assay on MCF7 breast, more than 100 µM. In the assay on ACHN renal, this compound showed a TGI of 3.12 µM.
For the compound `Nc1nc(-[n+]2ccc(-c3ccncc3)cc2)nc(Cl)c1Cl`, the TGI in the assay on SK-OV-3 ovarian was more than 100 µM; with SK-MEL-28 melanoma, more than 100 µM; in the assay on UACC-257 melanoma it was 40.8 µM; with MALME-3M melanoma, more than 100 µM; with HOP-62 NSCLC it was more than 100 µM; in the assay with HT29 colon, more than 100 µM. Besides, the TGI in the assay with HCC-2998 colon is more than 100 µM; in the assay with HOP-92 NSCLC, 48 µM; in the assay on U251 CNS, more than 100 µM; with K-562 leukemia, 91.7 µM; with SNB-19 CNS, more than 100 µM; in the assay with BT-549 breast it was more than 100 µM. The TGI with EKVX NSCLC was more than 100 µM; with HL-60(TB) leukemia, 38.9 µM; in the assay with SN12C renal it was 42.5 µM; in the assay on A498 renal, more than 100 µM; in the assay with SK-MEL-2 melanoma it was more than 100 µM; in the assay on MDA-N it was more than 100 µM. For the same compound, the TGI in the assay on MCF7 breast was 21.8 µM; in the assay with ACHN renal, more than 100 µM.
For `O=c1c2ccccc2nc(Cc2nc(-c3ccc(Cl)cc3)cs2)n1-c1ccc(Cl)cc1`, the TGI in the assay on SK-OV-3 ovarian, in the assay on SK-MEL-28 melanoma, in the assay on UACC-257 melanoma, in the assay with MALME-3M melanoma, with HOP-62 NSCLC and with HT29 colon was more than 100 µM each time. The TGI in the assay with HCC-2998 colon, with HOP-92 NSCLC, in the assay on U251 CNS, with K-562 leukemia, with SNB-19 CNS and in the assay with BT-549 breast was more than 100 µM throughout. Moreover, the TGI in the assay with EKVX NSCLC, in the assay with HL-60(TB) leukemia, with A498 renal, in the assay on SK-MEL-2 melanoma, in the assay with MDA-N and in the assay on MCF7 breast was more than 100 µM throughout. In the assay with ACHN renal, the TGI was more than 100 µM.
As to `C(/C=C/Nc1ccc(Oc2ccccc2)cc1)=Nc1ccc(Oc2ccccc2)cc1`, the TGI came to 30.3 µM in the assay on SK-MEL-28 melanoma; 32 µM with UACC-257 melanoma; 33.7 µM in the assay with MALME-3M melanoma; 38 µM in the assay on HOP-62 NSCLC; 29.7 µM with HT29 colon; 29.4 µM in the assay on HCC-2998 colon. Moreover, the TGI with HOP-92 NSCLC was determined as 51.2 µM; with U251 CNS, 33.2 µM; in the assay with K-562 leukemia, 55.9 µM; in the assay with SNB-19 CNS it was 31.3 µM; in the assay on BT-549 breast, 29.3 µM; in the assay with EKVX NSCLC it was 34.7 µM. Further, the TGI was 49.7 µM in the assay on HL-60(TB) leukemia; 27.9 µM in the assay on SN12C renal; 29.7 µM with A498 renal; 29.7 µM in the assay on MDA-N; 31.1 µM in the assay on MCF7 breast; 50.9 µM with ACHN renal.
